{"source": "patent US7951598B2", "about": "“Differential hemolysis of a whole blood sample” (Roche Diagnostics Operations, Inc., priority 2006, dated 2011)", "key": {"[1]": {"system": "red blood cells in EDTA-stabilized whole blood", "assay": "Visual evaluation of hemolysis (time until hemolysate is clear)", "assay_type": "cell-based", "description": "Whether the conditions for differential hemolysis are appropriate can be easily and preferably determined by using the following standardized procedure. A whole blood sample with a hematocrit of 40 is diluted 1:10 and mixed 1:1 with the candidate hemolysis reagent. The efficacy of a reagent for bringing about differential hemolysis is seen visually. Upon lysis of the erythrocytes the mixture becomes clear. If precipitation of sample constituents occurs the sample becomes turbid or viscous or both.\n(§1) Solution A: Fresh EDTA-stabilized whole blood is diluted with 0.15 molar sodium chloride solution in the ratio 1:10 (50 μL EDTA-blood plus 450 μL sodium chloride solution).\nIn the case of the addition of a second compound, e.g. potassium iodide (1-Butyl-3-methyl pyridiniumchloride/KJ) the stated salt is added in an approximately equimolar amount.\nHemolysate is prepared by mixing solution A and B in equal volumes, e.g. 500 μL solution A plus 500 μL solution B.\nAfter mixing the hemolysate is inspected visually for turbidometry and clearness immediately after mixing, after 1 minute, 2, 5, 6, 7, 20 and 40 minutes. The time until a clear solution is observed is recorded."}, "[2]": {"system": "erythrocytes in whole blood", "assay": "Microscopic evaluation of hemolysis, Trypane blue staining", "assay_type": "cell-based", "conditions": "reagent 25%, 1 in 10 diluted whole blood", "description": "The integrity of red blood cells can for example be easily assessed by appropriate life stains. In a preferred embodiment according to the present invention trypane blue is used in order to assess the integrity of a red blood cell, membrane. […] The membrane integrity of a red blood cell is easily assessed under the microscope after staining a sample with trypane blue. The percentage of disrupted red blood cells is calculated by counting intact red blood cells before and after the treatment, by then dividing the first number by the latter number and by then multiplying this value by 100. Red blood cells that are solubilized are referred to as lyzed red blood cells or as lyzed erythrocytes.\nas §1\nSolution B: A solution of the hemolysis reagent in 0.15 molar sodium chloride is prepared where the concentration of the hemolysis reagent is twice as high as the desired final concentration in the hemolysate, e.g. to get a final concentration of 25% of 1-Butyl-4-methylpyridinium tetrafluoroborate a solution of 50% ([…] salt plus 50 mL 0.15 molar sodium chloride in water) is prepared. […]"}, "[3]": {"system": "erythrocytes in whole blood", "assay": "Microscopic evaluation of hemolysis, May-Grünwald staining", "assay_type": "cell-based", "description": "as §1\nSolution B: A solution of the hemolysis reagent in 0.15 molar sodium chloride is prepared where the concentration of the hemolysis reagent is twice as high as the desired final concentration in the hemolysate, e.g. to get a final concentration of 25% of 1-Butyl-4-methylpyridinium tetrafluoroborate a solution of 50% ([…] salt plus 50 mL 0.15 molar sodium chloride in water) is prepared. In the case of the addition of a second anion, e.g. iodide (1-Butyl-3-methylpyridiniumchloride/KJ) the stated salt is added in an equimolar amount.\nHemolysate is prepared by mixing solution A and B in equal volumes, e.g. 20 μL solution A plus 20 μL solution B.\nAfter mixing of the hemolysate a droplet is smeared on a microscope slide, air dried at room temperature and stained with May-Grünwald staining reagent (Merck Cat. No. 1.01424 May-Grünwald's Eosin Methylene Blue Solution).\nMicroscopy is performed by oil immersion light microscopy (magnification ×630)."}, "[4]": {"conditions": "in vivo; cited from earlier work"}, "[5]": {"conditions": "in vitro; cited from earlier work"}, "[6]": {"conditions": "final concentration 25% (weight/volume), whole blood final dilution 1:20"}, "[7]": {"conditions": "final concentration 12.5% (weight/volume)"}}, "data": [{"smiles": "CCCC[n+]1cccc(C)c1.[Cl-]", "note": "[1-Butyl-3-methyl pyridiniumchloride]", "values": [{"measurement": "clear after (min.)", "setting": "[1]; [6]", "result": "turbid"}]}, {"smiles": "CCCCn1cc[n+](C)c1.F[B-](F)(F)F", "note": "[1-Butyl-3-methyl-imidazolium tetrafluoroborate]", "values": [{"measurement": "clear after", "setting": "[1]; [6]", "result": 20, "unit": "min"}]}, {"smiles": "CCCCCCCCOS(=O)(=O)[O-].CCCCn1cc[n+](C)c1", "note": "[1-Butyl-3-methyl-imidazoliumoctylsulfate]", "values": [{"measurement": "clear after (min.)", "setting": "[1]; [6]", "result": "immediately"}]}, {"smiles": "CCCC[n+]1ccc(C)cc1.F[B-](F)(F)F", "note": "[1-Butyl-4-methylpyridinium tetrafluoroborate]", "values": [{"measurement": "light microscopy of hemolyzed whole blood, Trypane blue staining", "setting": "[2]; 2.5 min incubation time (FIG. 4a)", "result": "Only few residual erythrocytes are left"}, {"measurement": "light microscopy of hemolyzed whole blood, Trypane blue staining", "setting": "[2]; 15 min incubation time (FIG. 4b)", "result": "No erythrocytes or membranes are left"}, {"measurement": "light microscopy of hemolyzed whole blood, May-Grünwald staining", "setting": "[3]; reagent 25%, 1 in 10 diluted whole blood (FIG. 2)", "result": "No erythrocytes or membranes are left, nuclei are still intact"}, {"measurement": "clear after (min.)", "setting": "[1]; final concentration 6% (weight/volume)", "result": "turbid"}, {"measurement": "clear after", "setting": "[1]; [7]", "result": 40, "unit": "min"}, {"measurement": "clear after", "setting": "[1]; [6]", "result": 20, "unit": "min"}]}, {"smiles": "CCCCCC[n+]1ccccc1.[Cl-]", "note": "[1-Hexylpyridiniumchloride]", "values": [{"measurement": "clear after (min.)", "setting": "[1]; [7]", "result": "turbid"}, {"measurement": "clear after", "setting": "[1]; [6]", "result": 7, "unit": "min"}]}, {"smiles": "CCCCCCCC[N+]1(C)CCCC1.[Cl-]", "note": "[1-Methyl-1-octyl pyrrolidiniumchloride]", "values": [{"measurement": "clear after (min.)", "setting": "[1]; final concentration 2.5% (weight/volume)", "result": "turbid"}, {"measurement": "clear after (min.)", "setting": "[1]; [6]", "result": "immediately"}]}, {"smiles": "CCCCCCCCOC[n+]1cccc(C(N)=O)c1.[Cl-]", "note": "[3-Carbamoyl-1-octyloxymethyl pyridiniumchloride]", "values": [{"measurement": "clear after (min.)", "setting": "[1]; final concentration 1.5% (weight/volume)", "result": "immediately"}, {"measurement": "clear after (min.)", "setting": "[1]; final concentration 6.25% (weight/volume)", "result": "immediately"}, {"measurement": "clear after (min.)", "setting": "[1]; [7]", "result": "immediately"}]}, {"smiles": "COc1c(C)c2c(c(O)c1C/C=C(\\C)CCC(=O)OCCN1CCOCC1)C(=O)OC2", "note": "[MMF, mycophenolate mofetil]", "values": [{"measurement": "therapeutic trough concentration", "setting": "[4]", "result": "1000 to 3500", "unit": "µg/L"}]}, {"smiles": "CCCCCCCC[n+]1ccccc1.[Cl-]", "note": "[N-Octylpyridiniumchloride]", "values": [{"measurement": "clear after", "setting": "[1]; [6]", "result": 2, "unit": "min"}]}, {"smiles": "CO[C@H]1C[C@@H]2CC[C@@H](C)[C@@](O)(O2)C(=O)C(=O)N2CCCC[C@H]2C(=O)O[C@H]([C@H](C)C[C@@H]2CC[C@@H](O)[C@H](OC)C2)CC(=O)[C@H](C)/C=C(\\C)[C@@H](O)[C@@H](OC)C(=O)[C@H](C)C[C@H](C)/C=C/C=C/C=C/1C", "note": "[Sirolimus, sirolimus]", "values": [{"measurement": "therapeutic trough concentration", "setting": "[4]", "result": "5 to 15", "unit": "µg/L"}]}, {"smiles": "C=CC[C@@H]1/C=C(\\C)C[C@H](C)C[C@H](OC)[C@H]2O[C@@](O)(C(=O)C(=O)N3CCCC[C@H]3C(=O)O[C@H](/C(C)=C/[C@@H]3CC[C@@H](O)[C@H](OC)C3)[C@H](C)[C@@H](O)CC1=O)[C@H](C)C[C@@H]2OC", "note": "[Tacrolimus, tacrolimus]", "values": [{"measurement": "therapeutic trough concentration", "setting": "[4]", "result": "5 to 20", "unit": "µg/L"}, {"measurement": "potency relative to cyclosporin", "setting": "[5]", "result": "up to 100 times"}]}, {"smiles": "O", "note": "[water, reference compound]", "values": [{"measurement": "light microscopy of hemolyzed whole blood, May-Grünwald staining", "setting": "[3]; hemolyzed with water, 1 in 10 diluted whole blood (FIG. 1)", "result": "Erythrocyte membranes and nuclei are visible"}]}]}
